How the values were obtained:
[1] = system: CAR-expressing, transduced T cells; test: CART co-culture with NALM6 cells in the presence of RAD001; type: cell-based; conditions: low doses of RAD001 (nM); 4 days of co-culture with NALM6
Protocol: CARTs were co-cultured with NALM6 (Nalm-6) cells in the presence of different concentrations of RAD001 (nM). The number of CAR-positive CD3-positive T cells (black) and total T cells (white) was assessed after 4 days of co-culture.

CAR T cells [2] = test: In vivo proliferation of humanized CD19 CART cells with and without RAD001 dosing; conditions: RAD001 0.003 mg/kg daily with huCTL019; versus normal level of huCAR19 proliferation
Protocol: FIGS. 62A and 62B show in vivo proliferation of humanized CD19 CART cells with and without RAD001 dosing. […] Circles denote PBS; squares denote huCTL019; triangles denote huCTL019 with 3 mg/kg RAD001; inverted triangles denote huCTL019 with 0.3 mg/kg RAD001; diamonds denote huCTL019 with 0.03 mg/kg RAD001; and circles denote huCTL019 with 0.003 mg/kg RAD001.

NALM6 (Nalm-6) = test: 4 day co-culture proliferation of huCART19 with RAD001; type: cell-based, human
Protocol: To evaluate the functionality of CARTs, the T cells are thawed and counted, and viability is assessed by Cellometer. The number of CAR-positive cells in each culture is normalized using non-transduced T cells (UTD). The impact of RAD001 on CARTs was tested in titrations with RAD001, starting at 50 nM. The target cell line used in all co-culture experiments is NALM6 (Nalm-6), a human pre-B cell acute lymphoblastic leukemia (ALL) cell line expressing CD19 and transduced to express luciferase.
For measuring the proliferation of CARTs, T cells are cultured with target cells at a ratio of 1:1. The assay is run for 4 days, when cells are stained for CD3, CD4, CD8 and CAR expression. The number of T cells is assessed by flow cytometry using counting beads as reference.
The proliferative capacity of CART cells was tested in a 4 day co-culture assay.

NALM6-luc tumors = test: RAD001 alone on growth of NALM6-luc tumors; type: in vivo, NSG mice; conditions: daily oral dosing of RAD001 alone
Protocol: NALM6-luc cells: The NALM6 human acute lymphoblastic leukemia (ALL) cell line was developed from the peripheral blood of a patient with relapsed ALL. The cells were then tagged with firefly luciferase. These suspension cells grow in RPMI supplemented with 10% heat inactivated fetal bovine serum.
Mice: 6 week old NSG (NOD.Cg-PrkdcscidIl2rgtm1Wjl/SzJ) mice were received from the Jackson Laboratory (stock number 005557).
Tumor implantation: NALM6-luc cells were grown and expanded in vitro in RPMI supplemented with 10% heat inactivated fetal bovine serum. The cells were then transferred to a 15 ml conical tube and washed twice with cold sterile PBS. NALM6-luc cells were then counted and resuspended at a concentration of 10×10^6 cells per milliliter of PBS. The cells were placed on ice and immediately (within one hour) implanted in the mice. NALM6-luc cells were injected intravenously via the tail vein in a 100 μl volume, for a total of 1×10^6 cells per mouse.
(§1) RAD001 dosing: A concentrated micro-emulsion of 50 mg equal to 1 mg RAD001 was formulated and then resuspended in D5W (dextrose 5% in water) at the time of dosing. Mice were orally dosed daily (via oral gavage) with 200 μl of the desired doses of RAD001.
(§2) The expansion and pharmacokinetics of RAD001 was tested in NSG mice with NALM6-luc tumors.

[3] = RAD001 PK analysis in tumor bearing mice; type: in vivo, NSG mice
Protocol: as §1
PK analysis: Mice were dosed daily with RAD001 starting 7 days post tumor implantation. Dosing groups were as follows: 0.3 mg/kg, 1 mg/kg, 3 mg/kg, and 10 mg/kg. Mice were bled on days 0 and 14 following the first and last dose of RAD001, at the following time points for PK analysis: 15 minutes, 30 minutes, 1 hour, 2 hours, 4 hours, 8 hours, 12 hours, and 24 hours.
as §2

CAR T cells [4] = test: huCAR19 CAR T cell expansion in vivo with RAD001; design: species or system NSG mice; conditions: lowest doses of RAD001, daily oral
Protocol: CAR T cell dosing: Mice were administered 5×10^6 CAR T cells 7 days after tumor implantation. Cells were partially thawed in a 37 degree Celsius water bath and then completely thawed by the addition of 1 ml of cold sterile PBS to the tube containing the cells. The thawed cells were transferred to a 15 ml falcon tube and adjusted to a final volume of 10 mls with PBS. The cells were washed twice at 1000 rpm for 10 minutes each time and then counted on a hemocytometer. T cells were then resuspended at a concentration of 50×10^6 CAR T cells per ml of cold PBS and kept on ice until the mice were dosed. The mice were injected intravenously via the tail vein with 100 μl of the CAR T cells for a dose of 5×10^6 CAR T cells per mouse. Eight mice per group were treated either with 100 μl of PBS alone (PBS), or humanized CD19 CAR T cells.
as §1
Based on these doses, huCAR19 CAR T cells were dosed with and without RAD001 to determine the proliferative ability of these cells. The highest dose used was 3 mg/kg based on the levels of RAD001 in the blood 24 hours after dosing. […] Mice were monitored via FACS for T cell expansion. […]

r/r B-ALL = conditions: cited from earlier work

| concentration of RAD001 in blood ([3]; 24 hours after the final dose) | concentration at 24 h ([3]; NSG, mouse, whole blood, oral, 24 hours after dosing, 0.3 mg/kg, day 0 and day 14, read-out: RAD001 concentrations in the blood) | stability in the blood of tumor bearing mice ([3]; mouse, in vivo) | Molecule | proliferation of CAR-expressing, transduced T cells [1] | CAR T cell proliferation in vivo (CAR T cells [2]) | proliferation of huCART19 cells (NALM6 (Nalm-6); 0.0032 and 0.016 nM RAD001) | RAD001 concentration at which huCART19 cells expanded (NALM6 (Nalm-6); lesser extent at higher concentrations) | growth of NALM6-luc tumors (NALM6-luc tumors) | proliferation of the CAR T cells in vivo (CAR T cells [4]) | share of relapses that are CD19-negative (r/r B-ALL) |
| --- | --- | --- | --- | --- | --- | --- | --- | --- | --- | --- |
| above 10 nM | > 10 nM | fairly stable in the blood | CO[C@H]1C[C@@H]2CC[C@@H](C)[C@@](O)(O2)C(=O)C(=O)N2CCCC[C@H]2C(=O)O[C@H]([C@H](C)C[C@@H]2CC[C@@H](OCCO)[C@H](OC)C2)CC(=O)[C@H](C)/C=C(\C)[C@@H](O)[C@@H](OC)C(=O)[C@H](C)C[C@H](C)/C=C/C=C/C=C/1C [RAD001, everolimus] | enhanced | enhancement in CAR T cell proliferation | higher than observed without the addition of RAD001 | less than 0.016 nM | did not have an impact on the growth of NALM6-luc tumors | enhanced proliferation of the CAR T cells |  |
|  |  |  | blinatumomab: bi-specific anti-CD19/CD3 antibody combining an anti-CD19 scFv with an anti-CD3 scFv |  |  |  |  |  |  | about 30% |

Reference: patent publication US10253086B2, “CD20 therapies, CD22 therapies, and combination therapies with a CD19 chimeric antigen receptor (CAR)-expressing cell” (Novartis AG, priority 2015, dated 2019)
